We go through 14 molecules from patent publication US20200085828A1, “PHOSPHODIESTERASE INHIBITORS AND METHODS OF MICROBIAL TREATMENT” (Mavupharma, Inc., priority 2016, published 2020).

The structures appear in SMILES notation.

A word on the inhibition: it is the relative decrease from the control value, in per cent. Broadly, the Ki is a measure of affinity in units of concentration, obtained from inhibition or displacement.

In test [1] the target is T1, human recombinant ENPP1 (Homo sapiens, UniProt P22413).
T1 sequence (P22413 1-925): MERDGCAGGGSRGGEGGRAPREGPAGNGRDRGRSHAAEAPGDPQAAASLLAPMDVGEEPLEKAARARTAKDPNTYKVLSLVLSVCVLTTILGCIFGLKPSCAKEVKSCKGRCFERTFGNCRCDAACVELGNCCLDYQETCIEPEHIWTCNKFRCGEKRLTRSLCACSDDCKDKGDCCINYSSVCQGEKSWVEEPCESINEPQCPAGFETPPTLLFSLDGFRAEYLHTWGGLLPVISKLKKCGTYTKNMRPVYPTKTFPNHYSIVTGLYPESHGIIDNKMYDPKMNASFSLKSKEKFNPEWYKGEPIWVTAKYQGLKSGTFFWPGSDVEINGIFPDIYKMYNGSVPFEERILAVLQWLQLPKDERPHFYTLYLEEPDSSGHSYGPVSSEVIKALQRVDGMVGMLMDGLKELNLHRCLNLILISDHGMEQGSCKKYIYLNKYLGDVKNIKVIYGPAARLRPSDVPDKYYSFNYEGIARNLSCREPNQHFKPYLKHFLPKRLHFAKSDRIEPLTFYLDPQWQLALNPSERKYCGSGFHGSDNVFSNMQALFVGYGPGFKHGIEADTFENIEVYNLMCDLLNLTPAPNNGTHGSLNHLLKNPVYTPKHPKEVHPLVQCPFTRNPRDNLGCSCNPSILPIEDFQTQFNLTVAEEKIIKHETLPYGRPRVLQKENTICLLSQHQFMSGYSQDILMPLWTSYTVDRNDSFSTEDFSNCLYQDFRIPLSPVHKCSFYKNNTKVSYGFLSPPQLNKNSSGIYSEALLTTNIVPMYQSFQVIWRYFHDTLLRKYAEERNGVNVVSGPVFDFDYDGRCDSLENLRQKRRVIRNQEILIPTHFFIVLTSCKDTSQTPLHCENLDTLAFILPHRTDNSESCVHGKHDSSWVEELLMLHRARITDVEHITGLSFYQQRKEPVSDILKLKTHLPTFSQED
As to the kind of experiment: ENPP1 inhibition with 2′,3′-cGAMP substrate (AMP-Glo assay). Type of test: biochemical. The conditions noted are these: for inhibition at 1 µM: at 1 μM compound; for inhibition at 1 µM / inhibition at 10 µM: read-out: Inhibition of ENPP1 with cGAMP as the Substrate; for inhibition at 10 µM: at 10 μM compound; for Ki: 20 μM 2′3′cGAMP, Ki from IC50 by Cheng-Prusoff, Km 15 μM. Here is the method: The AMP-Glo™ Assay Kit contains two reagents that are added sequentially. The first converts the 5′-AMP produced in the reaction to 5′ADP. The second converts the 5′-ADP to 5′ATP and reacts the 5′-ATP with the luciferase/luciferin pair to produce the luminescence signal. […] Inhibitors are added at final concentrations ranging between 10 μM and 30 pM depending on the compound. Duplicate wells are run at each inhibitor concentration. The final assay volume is 18 μL and human recombinant ENPP1 is present at 5 ng/well. The assay is initiated by the addition of substrate (20 μM 2′3′cGAMP final concentration), and incubated for 30 minutes at 37° C. To stop the reaction, 12 μl of AMP-Glo reagent I is added and the plate is incubated for 60 minutes at room temperature. 25 μl of AMP-detection reagent is then added and the wells are again incubated for 60 minutes at room temperature. The luminescence signal is then measured using a plate-reading luminometer. Each assay plate also includes wells with no enzyme added (MIN OD) and wells with no inhibitor added (MAX OD). The percent inhibition of ENPP1 for each sample is then calculated as: […]
IC50 values of compounds were calculated by entering the percent inhibition values into a sigmoidal variable slope nonlinear regression model in GraphPad Prism® software. IC50 values were converted to Ki values using the Cheng-Prusoff equation2 where the Km was 15 μM, based on internal determinations.

The test system of test [2] is cGAMP activated THP-1 cells. The test is described as follows: PDE inhibitor library screen on cGAMP activated THP-1 cells, IFNβ ELISA. The test is classed as cell-based, human. The conditions noted are these: 10 μM compound, suboptimal 2′,3′-cGAMP, 24 hours. Here is the method: THP-1 Cell Activation and Screening of Test Compounds: • (a) THP-1 cells from bulk cultures were counted and suspended in RPMI 1640, 20% FBS, 2.5 mM L-alanyl-L-glutamine at a concentration of 5.5×10^6 cells/mL. The THP-1 cells were subsequently seeded into 96 well round bottom plates—volume of 180 μL/well (1×10^6 cells per well), and the plate was incubated for 1 hour at 37° C., 5% CO2. • (b) Test compounds comprising known phosphodiesterase inhibitors (PDEs), were screened in triplicate (N1, N2, N3) on THP-1 cells. For compound screening, test compounds were assayed at a final concentration of 10 μM. A 200 μM (0.2 mM) working solution of each compound was prepared by diluting 10 mM DMSO stock solutions of each compound in media at a dilution of 50:1 (1640, 20% FBS, 2.5 mM L-alanyl-L-glutamine). […]
(i) Cell culture supernatants were harvested by centrifuging the plates at 200×g for 10 minutes. Cell culture supernatants were then transferred to a clean plate and stored at −80° C. until ready to analyze for IFNβ levels. • (j) IFNβ levels in cell culture supernatants were determined by ELISA according to the manufacturer's instructions (VeriKine Human IFNβ Assay). • (k) The interpolated data was normalized to vehicle control, or unstimulated control, and analyzed.
Background: An ELISA detects its analyte on a solid surface through an enzyme-linked reagent.

Test [3] addresses T1, human recombinant ENPP1. As to the kind of experiment: ENPP1 inhibition with AMP-pNP (ATP analog) substrate, absorbance at 405 nm. The test is classed as biochemical. The conditions noted are these: 300 μM AMP-pNP; Ki from IC50 by Cheng-Prusoff, Km 151 μM. Here is the method: The ENPP1 assay with AMP-pNP substrate is conducted in a buffer containing 50 mM Tris-HCl (pH 8.5)/250 mM NaCl/0.5 mM CaCl2/1 μM ZnCl2/0.1% DMSO. Inhibitors are added at final concentrations ranging between 10 μM and 30 pM depending on the compound. Duplicate wells are run at each inhibitor concentration. The final assay volume is 40 μL and human recombinant ENPP1 is present at 60 ng/well. The assay is initiated by the addition of substrate (300 μM AMP-pNP final concentration), and incubated for 20 minutes at 37° C. […] Each assay plate also includes wells with no enzyme added (MIN OD) and wells with no inhibitor added (MAX OD). The percent inhibition of ENPP1 for each sample is then calculated as: […]
IC50 values of compounds were calculated by entering the percent inhibition values into a sigmoidal variable slope nonlinear regression model in GraphPad Prism® software.

On to `COc1cc2ncnc(N3CCC(CCNS(N)(=O)=O)CC3)c2cc1OC` [Compound 3], for which, in test [1], the inhibition at 1 µM is 99% and the inhibition at 10 µM is 99%. Also, in test [2], the “augmentation of cGAMP mediated IFNβ production” value is “augmentation of cGAMP mediated IFNβ production”.
`COc1cc2ncnc(-c3ccc4c(c3)CN(S(N)(=O)=O)CC4)c2cc1OC` [Compound 21]: the Ki is 1.8 nM in test [1] and 65.2 nM in test [3].
`COc1cc2ncnc(N3CCC4(CC3)CN(S(N)(=O)=O)C4)c2cc1OC` [Compound 24]: in test [1] (Ki (AMP-pNP)/Ki (2′3′-cGAMP)), the “Substrate Selectivity Ki Ratio AMP-pNP/2′3′cGAMP” value came out at 18.7.
The same measure, in the same setting: the figure for `Cn1cnc2cccc(N3CCC(CCCS(C)(=O)=O)CC3)c21` [Compound 9] is over 128.
`COc1ccc(NC(=O)CSc2nc3c(N)ncnc3[nH]2)cc1OC` [Compound 2]: in test [1], the inhibition at 1 µM is 99% and the inhibition at 10 µM worked out at 99%.
As for `COc1cc2ncnc(N3CCC(CCN)CC3)c2cc1OC` [Compound 5], the Ki in test [1] was 46.7 nM.
On to `COc1cc2nccc(Oc3ccc(CS(N)(=O)=O)cc3)c2cc1OC` [Compound 6], for which the “Substrate Selectivity Ki Ratio AMP-pNP/2′3′cGAMP” value in test [1] (Ki (AMP-pNP)/Ki (2′3′-cGAMP)) was over 325.
Turning to `COc1cc2ncn(-c3ccc(CNS(N)(=O)=O)cc3)c2cc1OC` [Compound 16], the Ki in test [1] amounted to 27.1 nM; in test [3], 1460 nM.
Regarding `O=c1cc(-c2ccc(O)c(O)c2)oc2cc(O)cc(O)c12` [Compound 1], in test [2], the “augmentation of cGAMP mediated IFNβ production” value was “augmentation of cGAMP mediated IFNβ production”.
For the molecule `CCN(C)S(=O)(=O)NCCC1CCN(c2ncnc3cc(OC)c(OC)cc23)CC1` [Compound 12], the Ki in test [1] is 336 nM.
With `COc1cc2nccc(Nc3ccc(NS(=O)(=O)c4ccccc4)cc3)c2cc1OC` [Compound 14], the Ki stood at 29.1 nM in test [1] and 1830 nM in test [3].
As for `COc1cc2nc(-c3cccnc3)nc(N3CCC(CCNS(C)(=O)=O)CC3)c2cc1OC` [Compound 23], the “Substrate Selectivity Ki Ratio AMP-pNP/2′3′cGAMP” value in test [1] (Ki (AMP-pNP)/Ki (2′3′-cGAMP)) is given as over 23.9.
With `COc1cc2nccc(Oc3ccc(NS(=O)(=O)c4ccccc4)cc3)c2cc1OC` [Compound 25], in test [1], the Ki stood at 44 nM.
On to `COc1ccc(CC(=O)CCC2=Nc3c(N)ccnc3C2)cc1OC` [Compound 4], for which, in test [1] (Ki (AMP-pNP)/Ki (2′3′-cGAMP)), the “Substrate Selectivity Ki Ratio AMP-pNP/2′3′cGAMP” value was over 37500 and the “selectivity for inhibition of cGAMP over AMP-pNP hydrolysis by ENPP1” value was > 37,500 fold.
